Legend:
Type in all cases: in vivo
POAAN: Poa annua [1] = test: Pre-emergence herbicide efficacy at 1280 g/ha, POAAN; settings: visual scoring after about 3 weeks vs untreated controls
Procedure, shortened: (§1)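 Seeds sown in sandy loam in pots and covered; compounds as WP or EC applied to covering soil surface as aqueous suspension/emulsion with 0.5% additive at 600 L/ha water. Greenhouse growth ~3 weeks, then visual % efficacy vs untreated controls (100% = plants dead, 0% = like control).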

[2] = system: AMARE: Amaranthus retroflexus; test: Pre-emergence herbicide efficacy at 1280 g/ha, AMARE; settings: visual scoring after about 3 weeks vs untreated controls
Procedure, shortened: as §1

SETVI: Setaria viridis [3] = test: Post-emergence herbicidal efficacy at 1280 g/ha, SETVI; settings: visual rating about 3 weeks after treatment vs untreated controls
Procedure, shortened: (§2)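 Read-out is visual percent activity relative to untreated controls (100% = plants died, 0% = no effect), scored about 3 weeks after treatment. Application was post-emergence at the one-leaf stage in the greenhouse, as WP or EC in water with 0.5% additive at 600 L/ha.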

KCHSC: Kochia scoparia [4] = test: Pre-emergence herbicide efficacy at 1280 g/ha, KCHSC; settings: visual scoring after about 3 weeks vs untreated controls
Procedure, shortened: as §1

KCHSC: Kochia scoparia [5] = test: Post-emergence herbicidal efficacy at 1280 g/ha, KCHSC; settings: visual rating about 3 weeks after treatment vs untreated controls
Procedure, shortened: as §2

STEME: Stellaria media [6] = test: Post-emergence herbicidal efficacy at 1280 g/ha, STEME; settings: visual rating about 3 weeks after treatment vs untreated controls
Procedure, shortened: as §2

VERPE: Veronica persica [7] = test: Pre-emergence herbicide efficacy at 1280 g/ha, VERPE; settings: visual scoring vs untreated controls
Procedure, shortened: as §1

[8] = system: ABUTH: Abutilon theophrasti; test: Post-emergence herbicidal efficacy at 1280 g/ha, ABUTH; settings: rated visually after about 3 weeks vs untreated controls, 100% = plants have died, 0% = like control plants
Procedure, shortened: as §2

[9] = system: MATIN: Matricaria inodora; test: Pre-emergence herbicide efficacy at 1280 g/ha, MATIN; settings: visual scoring after about 3 weeks vs untreated controls
Description: Seeds of mono- and dicotyledonous weed plants were placed in plastic pots in sandy loam soil (doubly sown with one species each of mono- or dicotyledonous weed plants per pot) and covered with soil. The compounds of the invention, formulated in the form of wettable powders (WP) or as emulsion concentrates (EC), were then applied to the surface of the covering soil as aqueous suspension or emulsion with addition of 0.5% additive at a water application rate of 600 litres per hectare (converted). After the treatment, the pots were placed in a greenhouse and kept under good growth conditions for the test plants. After about 3 weeks, the efficacy of the preparations was scored visually in comparison with untreated controls as percentages. For example, 100% activity=the plants have died, 0% activity=like control plants. Tables C1 to C12 below show the effects of selected compounds of the general formula (I) according to Table 1 on various harmful plants and at an application rate corresponding to 1280 g/ha, which were obtained by the trial procedure specified above.

STEME: Stellaria media [10] = test: Pre-emergence herbicide efficacy at 1280 g/ha, STEME; settings: visual scoring vs untreated controls
Procedure, shortened: as §1

[11] = system: ABUTH: Abutilon theophrasti; test: Pre-emergence herbicide efficacy at 1280 g/ha, ABUTH; settings: visual scoring after about 3 weeks vs untreated controls
Procedure, shortened: as §1

[12] = system: ECHCG: Echinochloa crus-galli; test: Pre-emergence herbicide efficacy at 1280 g/ha, ECHCG; settings: visual scoring after about 3 weeks vs untreated controls
Procedure, shortened: as §1

[13] = system: DIGSA: Digitaria sanguinalis; test: Post-emergence herbicidal efficacy at 1280 g/ha, DIGSA; settings: rated visually after about 3 weeks vs untreated controls, 100% = plants have died, 0% = like control plants
Description: Seeds of mono- and dicotyledonous weed plants were placed in plastic pots in sandy loam soil (doubly sown with in each case one species of mono- or dicotyledonous weed plants per pot), covered with soil and cultivated in a greenhouse under controlled growth conditions. 2 to 3 weeks after sowing, the test plants were treated at the one-leaf stage. The compounds of the invention, formulated in the form of wettable powders (WP) or as emulsion concentrates (EC), were applied to the green parts of the plants as aqueous suspension or emulsion with addition of 0.5% additive at a water application rate equivalent to 600 litres per hectare. After the test plants had been kept in the greenhouse under optimum growth conditions for about 3 weeks, the activity of the preparations was rated visually in comparison to untreated controls. For example, 100% activity=the plants have died, 0% activity=like control plants. Tables A1 to A12 below show the effects of selected compounds of the general formula (I) according to Table 1 on various harmful plants and at an application rate corresponding to 1280 g/ha, which were obtained by the trial procedure specified above.

[14] = system: AMARE: Amaranthus retroflexus; test: Post-emergence herbicidal efficacy at 1280 g/ha, AMARE; settings: rated visually after about 3 weeks vs untreated controls, 100% = plants have died, 0% = like control plants
Procedure, shortened: as §2

VERPE: Veronica persica [15] = test: Post-emergence herbicidal efficacy at 1280 g/ha, VERPE; settings: visual rating about 3 weeks after treatment vs untreated controls
Procedure, shortened: as §2

POAAN: Poa annua [16] = test: Post-emergence herbicidal efficacy at 1280 g/ha, POAAN; settings: visual rating about 3 weeks after treatment vs untreated controls
Procedure, shortened: as §2

SETVI: Setaria viridis [17] = test: Pre-emergence herbicide efficacy at 1280 g/ha, SETVI; settings: visual scoring vs untreated controls
Procedure, shortened: as §1

[18] = system: DIGSA: Digitaria sanguinalis; test: Pre-emergence herbicide efficacy at 1280 g/ha, DIGSA; settings: visual scoring after about 3 weeks vs untreated controls
Procedure, shortened: as §1

[19] = system: ECHCG: Echinochloa crus-galli; test: Post-emergence herbicidal efficacy at 1280 g/ha, ECHCG; settings: rated visually after about 3 weeks vs untreated controls, 100% = plants have died, 0% = like control plants
Procedure, shortened: as §2

[20] = system: AMARE: Amaranthus retroflexus; test: Post-emergence herbicidal efficacy at 80 g/ha, AMARE; settings: visual rating about 3 weeks after treatment vs untreated controls
Description: Seeds of monocotyledonous and dicotyledonous weeds and crop plants were placed in sandy loam in plastic or organic planting pots, covered with soil and cultivated in a greenhouse under controlled growth conditions. 2 to 3 weeks after sowing, the test plants were treated at the one-leaf stage. The compounds of the invention, formulated in the form of wettable powders (WP) or as emulsion concentrates (EC), were then sprayed onto the green parts of the plants as aqueous suspension or emulsion with addition of 0.5% additive at a water application rate of 600 l/ha (converted). After the test plants had been kept in the greenhouse under optimum growth conditions for about 3 weeks, the activity of the preparations was rated visually in comparison to untreated controls. For example, 100% activity=the plants have died, 0% activity=like control plants. Tables B1 to B10 below show the effects of selected compounds of the general formula (I) according to Table 1 on various harmful plants and an application rate corresponding to 80 g/ha, which were obtained by the experimental procedure mentioned above.

POLCO = test: Pre-emergence herbicide efficacy at 80 g/ha, POLCO; settings: Polygonum convolvulus, scored visually after about 3 weeks
Description: (§3) Seeds of monocotyledonous and dicotyledonous weed plants and crop plants were placed in plastic or organic planting pots and covered with soil. The compounds of the invention, formulated in the form of wettable powders (WP) or as emulsion concentrates (EC), were then applied to the surface of the covering soil as aqueous suspension or emulsion with addition of 0.5% additive at a water application rate equivalent to 600 l/ha. After the treatment, the pots were placed in a greenhouse and kept under good growth conditions for the test plants. After about 3 weeks, the efficacy of the preparations was scored visually in comparison with untreated controls as percentages. For example, 100% activity=the plants have died, 0% activity=like control plants. Tables D1 to D12 below show the effects of selected compounds of the general formula (I) according to Table 1 on various harmful plants and an application rate corresponding to 80 g/ha, which were obtained by the experimental procedure mentioned above.

[21] = system: AMARE: Amaranthus retroflexus; test: Pre-emergence herbicide efficacy at 80 g/ha, AMARE; settings: scored visually after about 3 weeks
Description: as §3

[22] = system: DIGSA: Digitaria sanguinalis; test: Pre-emergence herbicide efficacy at 80 g/ha, DIGSA; settings: scored visually after about 3 weeks
Description: as §3

## Fc1ccc(Cc2ccccc2Oc2ncc(Cl)cn2)nc1 [Example 1-92]
POAAN: Poa annua [1]
  Pre-emergence efficacy against POAAN: 100%
[2]
  Pre-emergence efficacy against AMARE: 100%
SETVI: Setaria viridis [3]
  Post-emergence efficacy against SETVI: 100%
KCHSC: Kochia scoparia [4]
  Pre-emergence efficacy against KCHSC: 100%
KCHSC: Kochia scoparia [5]
  Post-emergence efficacy against KCHSC: 100%
STEME: Stellaria media [6]
  Post-emergence efficacy against STEME: 100%
VERPE: Veronica persica [7]
  Pre-emergence efficacy against VERPE in %: 100%
[8]
  Post-emergence efficacy at 1280 g/ha against ABUTH in %: 90%
[9]
  Pre-emergence efficacy against MATIN: 100%
STEME: Stellaria media [10]
  Pre-emergence efficacy against STEME in %: 100%
[11]
  Pre-emergence efficacy against ABUTH: 100%
[12]
  Pre-emergence efficacy against ECHCG: 100%
[13]
  Post-emergence efficacy at 1280 g/ha against DIGSA in %: 90%
[14]
  Post-emergence efficacy at 1280 g/ha against AMARE in %: 100%
VERPE: Veronica persica [15]
  Post-emergence efficacy against VERPE: 100%
POAAN: Poa annua [16]
  Post-emergence efficacy against POAAN: 100%
SETVI: Setaria viridis [17]
  Pre-emergence efficacy against SETVI in %: 100%
[18]
  Pre-emergence efficacy against DIGSA: 100%

## Fc1ccc(Sc2ccccc2Cc2ncc(F)cn2)cc1 [Example 1-104]
POAAN: Poa annua [1]
  Pre-emergence efficacy against POAAN: 100%
[2]
  Pre-emergence efficacy against AMARE: 100%
SETVI: Setaria viridis [3]
  Post-emergence efficacy against SETVI: 90%
KCHSC: Kochia scoparia [5]
  Post-emergence efficacy against KCHSC: 100%
STEME: Stellaria media [6]
  Post-emergence efficacy against STEME: 100%
VERPE: Veronica persica [7]
  Pre-emergence efficacy against VERPE in %: 100%
[8]
  Post-emergence efficacy at 1280 g/ha against ABUTH in %: 100%
[9]
  Pre-emergence efficacy against MATIN: 100%
STEME: Stellaria media [10]
  Pre-emergence efficacy against STEME in %: 100%
[19]
  Post-emergence efficacy at 1280 g/ha against ECHCG in %: 100%
[11]
  Pre-emergence efficacy against ABUTH: 100%
[12]
  Pre-emergence efficacy against ECHCG: 100%
[13]
  Post-emergence efficacy at 1280 g/ha against DIGSA in %: 100%
[14]
  Post-emergence efficacy at 1280 g/ha against AMARE in %: 100%
VERPE: Veronica persica [15]
  Post-emergence efficacy against VERPE: 100%
POAAN: Poa annua [16]
  Post-emergence efficacy against POAAN: 100%
SETVI: Setaria viridis [17]
  Pre-emergence efficacy against SETVI in %: 100%
[18]
  Pre-emergence efficacy against DIGSA: 100%

## Fc1cnc(Cc2cccc(F)c2Oc2ncc(Cl)cn2)nc1 [Example 1-154]
[20]
  Post-emergence efficacy against AMARE: 90%
POLCO
  Pre-emergence efficacy against POLCO in %: 80%
[21]
  Pre-emergence efficacy against AMARE in %: 100%

## Fc1cnc(Cc2cccc(Cl)c2Oc2ncc(Cl)cn2)nc1 [Example 1-157]
[20]
  Post-emergence efficacy against AMARE: 80%
[21]
  Pre-emergence efficacy against AMARE in %: 100%
[22]
  Pre-emergence efficacy against DIGSA in %: 80%

Reference: patent US20250221410A1, “SUBSTITUTED 2-C-AZINES AND SALTS THEREOF, AND USE THEREOF AS HERBICIDAL ACTIVE SUBSTANCES” (BAYER AKTIENGESELLSCHAFT, priority 2022, published 2025)
